Where two headings read alike, the source gives them in different places.
Legend:
Format in all cases: cell-based
[1] = tested on: TNF-α; assay: TNF-α activity inhibition assay (LPS-stimulated hPBMC, TNF-α ELISA); details: Homo sapiens, 18 h
Experimental: Efficacy Example 1: TNF-α Activity Inhibition Assay
Heat Inactivated FBS: Invitrogen, Cat #10100147
DMSO: Dimethyl sulphoxide, Sigma, Cat #D8418
CTL-Anti-Aggregate Wash 20×: CTL, Cat #CTL-AA-005
Human TNF ELISA Set: BD, Cat #555212
PBMC Recovery and Cell Plating Steps
1) Agitation was performed continuously in a 37° C. water bath to rapidly thaw cells.
2) The cells were gently added to a 15 ml centrifuge tube, to which was then added 10 ml of fresh, prewarmed recovery medium gently and then centrifugation was performed at 1000 rpm for 10 min.
3) The supernatant medium was discarded and resuspension was performed with 10 ml of fresh, prewarmed RPMI 1640 complete medium.
1) The total number of cells needed for the experiment was calculated and adjusted to the appropriate cell concentration per ml. 100 ul and 10^5 cells per well.
2) The cell suspension was diluted with appropriate volume of cell culture medium.
3) The cell suspension was added to a disposable sterile sample well.
4) 100 ul of cell suspension was added to each well of a 96-well plate.
5) The plate was incubated in a 37° C., 5% CO2 incubator for 2 hours.
Compound Preparation Step
1. LPS: The 1 mg/mL stock solution was diluted with water, aliquoted, and stored at −80° C. Prior to each test, the working solution of LPS was diluted from the stock solution with serum-free RPMI 1640 medium.
20 mM stock solution was dissolved in DMSO and the compound was checked for solubility, aliquoted, and stored at −80° C.
8× compound gradient preparation: […]
A series of compound concentration gradient was diluted with DMSO: 10 mM, 2 mM, 0.4 mM, 80 uM, 16 uM, 3.2 uM, 0.64 uM, 0.128 uM were obtained and then the compounds were diluted 125-fold with serum-free RPMI 1640 medium to the final 8×. The final concentration of DMSO in cell culture was 0.1%.
Compound Processing Experimental Procedures and Collection of Supernatants
1. Cell Plating: Fresh cells were plated in 96-well cell culture plates according to the procedure above, 100 ul and 10^5 cells per well, and then incubated in a 37° C., 5% CO2 incubator for 2 hours.
2. Compound Preparation: Before test, compounds were added to the plates according to the above description. A dose of compound in 8× concentration was prepared with serum-free RPMI 1640 medium and all gradients of solution were added to the compound plate.
3. Compound addition: 16.7 ul of compound solution in working concentration was added to each well of the cell culture plate. The plate was incubated in a 37° C., 5% CO2 incubator for 1 hour.
4. 16.7 ul of 8×LPS per well (final concentration of LPS is EC80, the amount of each PBMC needed to be determined) was added. The plate was incubated for 18 hours in 37° C., 5% CO2 incubator.
5. 80 ul of supernatant per well was collected and then subjected to TNF-α ELISA assay. The collected supernatant can be stored at −80° C. The supernatant needed to be diluted in various ratios to ensure that the experimental dose would not exceed the linear range of the TNF-α standard curve, depending on the amount of TNF-α released in different donors. Typically, 20-100 ul of supernatant was diluted to 200 ul and then used for ELISA experiments.
The TNF-α ELISA test procedure were referred to the BD human TNF-α ELISA kit experimental procedure.
Four compounds per plate. 5-fold dilution was performed, starting from 10 uM, by 8 gradients, and parallel wells were made. A total of 16 compounds were tested.
The TNF-α standard was added to each plate. (1st well, starting from 500 pg/ml, 2-fold dilution, 7 gradients)
ZPE (0% inhibition) used 15 pg/ml LPS+0.1% DMSO, while HPE (100% inhibition) used only 0.1% DMSO.
The inhibition rate statistics were calculated. The inhibition rate (%)=[1−[…]]*100%. IC50 was used to evaluate the concentration of the test compound (nM) at 50% inhibition.

[2] = tested on: MM.1S cells (myeloma cells); assay: CTG cell proliferation, MM.1S; details: Homo sapiens, MM1.S, CellTiter-Glo, 72-120 hours, read-out: IC50 value for MM.1S Inhibition
Description: (§1) Efficacy Example 2: CTG Cell Proliferation Experimental Method
(§2) MM.1S cells (myeloma cells) (ATCC, catalog number CRL-2974), DOHH2 cells (mantle cell lymphoma cells) (DSMZ, catalog number ACC-47), NCI-H929 cells (myeloma cells) (ATCC, catalog number CRL-9068), or WSU-DLCL-2 cells (diffuse large B cell lymphoma cells) (DSMZ, catalog number ACC-575), Namalwa.CSN/70 cells (non-Hodgkin's lymphoma cells (DSMZ, catalog number ACC-70) was inoculated as (1.8-15)×10^3 per well in white wall, transparent bottom 96-well plate containing specific media (Corning, catalog number CLS3903), which was cultured in 37° C., 5% CO2 incubator for 24 hours. Compounds were formulated in DMSO (Sigma, Cat. No. 276855) as 150 mM stock, which was diluted to the required concentration (DMSO final concentration is 0.2%) in culture medium and added to each well, 2 wells/concentration. The plate was incubated in 37° C., 5% CO2 incubator for 72-120 hours. Afterwards, 100 μl of CellTiter-Glo® cell activity assay reagent (Promega, Cat. No. G7570) was added to each well, which was mixed on a plate shaker for 10 minutes to induce cell lysis. The 96-well plate was allowed to stand at room temperature for 10 minutes to stabilize the luminescence signal. A white base film was pasted on the bottom of the plate and the EnSpire was used to read the plate. Data processing was performed with XLfit software to obtain IC50 values.

[3] = tested on: WSU-DLCL-2 cells (diffuse large B cell lymphoma cells); assay: CTG cell proliferation, WSU-DLCL-2; details: Homo sapiens, WSUDLCL2; Table 2 batch; CellTiter-Glo, 72-120 hours; read-out: IC50 value for WSU-DLCL2 Inhibition
Description: as §1, §2

[4] = tested on: DOHH2 cells (mantle cell lymphoma cells); assay: CTG cell proliferation, DOHH2; details: Homo sapiens, DOHH-2; Table 2 batch; CellTiter-Glo, 72-120 hours; read-out: IC50 value for DOHH2 Inhibition
Description: as §1, §2

[5] = tested on: NCI-H929 cells (myeloma cells); assay: CTG cell proliferation, NCI-H929; details: Homo sapiens, Table 2 batch, CellTiter-Glo, 72-120 hours, read-out: IC50 value for NCI-H929 Inhibition
Description: as §1, §2

[6] = tested on: Namalwa.CSN/70 cells (non-Hodgkin's lymphoma cells); assay: CTG cell proliferation, Namalwa.CSN/70; details: Table 2 batch; CellTiter-Glo, 72-120 hours; read-out: IC50 value for Namalwa. CSN/70 Inhibition
Description: as §1, §2

IC50 ([1]; Table 1-1 experiment) [nM]	IC50 ([2]; Table 3 batch) [nM]	SMILES	also measured
5.9		Cc1nc2cc(C#N)cc(N)c2c(=O)n1C1CCC(=O)NC1=O (stereo not shown) [Compound K724]	
138		Cc1cc(N)c2c(=O)n(C3CCC(=O)NC3=O)c(C)nc2c1 (stereo not shown) [Compound K720]	
10.2	22	Cc1nc2cc(Cl)cc(N)c2c(=O)n1C1CCC(=O)NC1=O (stereo not shown) [Compound K401]	
	507	Cc1nc2cc(O)cc(N)c2c(=O)n1C1CCC(=O)NC1=O (stereo not shown) [Compound K700]	
319		Cc1nc2cc(OCc3ccc(CN4CCOCC4)cc3F)cc(N)c2c(=O)n1C1CCC(=O)NC1=O (stereo not shown) [Compound K706]	
9.6	26.7	Cc1nc2cc(Br)cc(N)c2c(=O)n1C1CCC(=O)NC1=O (stereo not shown) [Compound K501]	
10.2		Cc1nc2cc(F)cc(N)c2c(=O)n1C1CCC(=O)NC1=O (stereo not shown) [Compound K101]	IC50 ([1]; Table 1 experiment): 27.8 nM; IC50 ([2]; Table 2 batch): 13.3 nM; IC50 [3]: 179 nM; IC50 [4]: 125 nM; IC50 [5]: 30.4 nM; IC50 [6]: 6.8 nM
466		Cc1nc2cc(OCc3ccccc3)cc(N)c2c(=O)n1C1CCC(=O)NC1=O (stereo not shown) [Compound K704]	
283		Cc1nc2cc(F)cc(N)c2c(=O)n1[C@@H]1CCC(=O)NC1=O [Compound K103]	IC50 ([2]; Table 4 batch): 465 nM
32.8	37.5	Cc1nc2cccc(N)c2c(=O)n1C1CCC(=O)NC1=O (stereo not shown) [Compound K001, reference compound]	IC50 ([1]; Table 1 experiment): 32.5 nM; IC50 ([2]; Table 2 batch): 49.8 nM; IC50 ([2]; Table 4 batch): 275 nM; IC50 [3]: 469 nM; IC50 [4]: 459 nM; IC50 [5]: 86.1 nM; IC50 [6]: 65.8 nM
7.3		Cc1nc2cc(F)cc(N)c2c(=O)n1[C@H]1CCC(=O)NC1=O [Compound K102]	IC50 ([2]; Table 4 batch): 104 nM

Further lines, the compound ahead of its results:

SMILES	IC50 ([1]; Table 1-1 experiment) [nM]	IC50 ([2]; Table 3 batch) [nM]	also measured
Cc1nc2cc(F)cc(NC(C)C)c2c(=O)n1C1CCC(=O)NC1=O (stereo not shown) [Compound K617]	153		
[2H]C1(n2c(C)nc3cc(F)cc(N)c3c2=O)CCC(=O)NC1=O (stereo not shown) [Compound K104]			IC50 ([2]; Table 4 batch): 192 nM
CC(=O)Nc1cc(F)cc2nc(C)n(C3CCC(=O)NC3=O)c(=O)c12 (stereo not shown) [Compound K633]	392	314	
Cc1nc2cc(F)cc(NC(=O)C(C)C)c2c(=O)n1C1CCC(=O)NC1=O (stereo not shown) [Compound K635]		2810	
[2H][C@@]1(n2c(C)nc3cc(F)cc(N)c3c2=O)CCC(=O)NC1=O [Compound K106]	781		IC50 ([2]; Table 4 batch): 504 nM
Cc1nc2c(F)ccc(N)c2c(=O)n1C1CCC(=O)NC1=O (stereo not shown) [Reference 2, reference compound]		> 300000	
Cc1nc2ccc(F)c(N)c2c(=O)n1C1CCC(=O)NC1=O (stereo not shown) [Reference 3, reference compound]		1170	
COc1cc(F)cc2nc(C)n(C3CCC(=O)NC3=O)c(=O)c12 (stereo not shown) [Compound K627]		5930	
Nc1cccc2c1CN(C1CCC(=O)NC1=O)C2=O (stereo not shown) [Compound B001]	99.1		IC50 ([1]; Table 1 experiment): 192 nM; IC50 ([2]; Table 2 batch): 362 nM; IC50 [3]: > 300000 nM; IC50 [4]: > 300000 nM; IC50 [5]: 1000 nM; IC50 [6]: > 300000 nM
[2H][C@]1(n2c(C)nc3cc(F)cc(N)c3c2=O)CCC(=O)NC1=O [Compound K105]	6.4		IC50 ([2]; Table 4 batch): 33 nM
Cc1nc2cc(F)cc(O)c2c(=O)n1C1CCC(=O)NC1=O (stereo not shown) [Compound K631]		956	
CNc1cc(F)cc2nc(C)n(C3CCC(=O)NC3=O)c(=O)c12 (stereo not shown) [Compound K613]	9.4		
Cc1nc2cc(F)ccc2c(=O)n1C1CCC(=O)NC1=O (stereo not shown) [Reference 1, reference compound]	2800	2400	
